Measured values taken from patent EP4772186A1, “USE AND COMPOSITION OF POSTBIOTIC OF LACTOBACILLUS PARACASEI ET-22” (Inner Mongolia Yili Industrial Group Co., Ltd., priority 2023, dated 2025).

System: VSC concentration
Assay: in vitro Halimeter determination of VSC concentration in saliva fermentation
Format: cell-based, halitosis subjects (saliva)
Details: compared with CK group, anaerobic cultivation 10 hours
Method: Fresh saliva was collected from 10 halitosis subjects (Halimeter index >120). Subjects were required not to consume any food or drink for 2 hours before donating saliva. Saliva was directly spat into a saliva collection tube, 5 ml per person, and mixed. The mixture was centrifuged at 4500 rpm for 10 minutes, and the supernatant was collected, aliquoted, and stored at -80°C for subsequent experimental studies.
(§1) Lysate observation group: In a 10 ml sample vial, 100 µl of saliva was added first, followed by the separate addition of ET-22 viable bacteria (1.0×10^9 CFU/ml), ET-22 heat-inactivated bacterial cells (obtained by inactivating viable bacteria at 1.0×10^9 CFU/ml), and lysate (obtained by inactivating and then filtering viable bacteria at 1.0×10^9 CFU/ml), each at 100µl. Then, 1.8 ml of SHI medium was added. After filling with nitrogen, anaerobic cultivation was performed for 10 hours. Then, the obtained culture was placed in a 60°C water bath for 30-min incubation. VSC concentration was measured using the in vitro Halimeter method.
(§2) Group of two nucleotides: In a 10 ml sample vial, 100 µl of saliva was added first, followed by the separate addition of ET-22 viable bacteria (1.0×10^9 CFU/ml), ET-22 heat-inactivated bacterial cells (obtained by inactivating viable bacteria at 1.0×10^9 CFU/ml), NAD, and FAD (500 µg/ml, 100 µg/ml, 10 µg/ml), each at 100µl. Then, 1.8 ml of SHI medium was added. After filling with nitrogen, anaerobic cultivation was performed for 10 hours. Then, the obtained culture was placed in a 60°C water bath for 30-min incubation. VSC concentration was measured using the in vitro Halimeter method.
as §2, with “five organic acids:” for “two nucleotides:”, “heat-inactivating” for “inactivating”, “CFU/ml),” for “CFU/ml), NAD,”, “five organic acid components” for “FAD”
as §2, with “Observation group” for “Group”, “four polypeptides:” for “two nucleotides:”, “heat-inactivating” for “inactivating”, “CFU/ml),” for “CFU/ml), NAD,”, “components of four polypeptides” for “FAD”
as §1, with “Peptidoglycan” for “Lysate observation”, “peptidoglycan (peptidoglycan extracted from” for “lysate (obtained by inactivating and then filtering”, “CFU/ml).” for “CFU/ml), each at 100µl.”, “method. […]” for “method.”

Measured: VSC concentration

Cc1cc2nc3c(=O)[nH]c(=O)nc-3n(C[C@H](O)[C@H](O)[C@H](O)COP(=O)(O)OP(=O)(O)OC[C@H]3O[C@@H](n4cnc5c(N)ncnc54)[C@H](O)[C@@H]3O)c2cc1C [FAD, Flavin adenine dinucleotide (FAD)]
no significant change: high concentration (500 µg/ml) | low concentration (10 µg/ml) | medium concentration (100 µg/ml)
